Values of other authors as cited in US20020044913A1, “Cosmetics to support skin metabolism” (priority 2000, published 2002).
Like-named read-outs stand apart in the source and are kept apart here.

Tests used:
[1] = tested on: carnitine-acetyl-carnitine exchange across the inner mitochondrial membrane
apoptosis = details: through its action in the mitochondria
[2] = tested on: senescent myocardium (human atrial tissue and rats)
[3] = daily supplements of up to 200 mg for 6-12 months and 100 mg daily for up to 6 y
aged rats = details: supplementation
oxidant production = details: carnitine supplementation
skeletal muscle = details: older individuals (40-73), 20 g/day, one week
[4] = not given; remark: listed apart in the source

In the case of `C[N+](C)(C)C[C@H](O)CC(=O)[O-]` [L-carnitine], the “age-associated decrease in mtDNA transcription” value [1] is given as “reverse”, the “age-related decrease in cardiolipin” value [1] is given as “reverse the age-related decrease in cardiolipin” and the “age-related decrease of carnitine-acetyl-carnitine exchange activity” value [1] is given as “slow or reverse this age-related dysfunction”. The decreased membrane potential [1] was “reverse”.

For `COC1=C(OC)C(=O)C(C/C=C(\C)CC/C=C(\C)CC/C=C(\C)CC/C=C(\C)CC/C=C(\C)CC/C=C(\C)CC/C=C(\C)CC/C=C(\C)CC/C=C(\C)CCC=C(C)C)=C(C)C1=O` [Q10, Coenzyme Q10], the benefit of supplementation (older Finnish men, 100 mg/day) is given as “obtained benefit”, the clinical improvement (woman deficient in Q10, 150 mg/kg) is given as “rapidly improved” and the “programmed cell death (apoptosis)” value (apoptosis) is given as “appears to block programmed cell death”. The “tolerance of senescent myocardium to aerobic and ischemic stress” value ([2]; human atrial tissue and rats) was “improves the tolerance”, the “recovery of function in older hearts” value ([2]; older vs younger hearts) was “corrected the age-specific diminished recovery of function in older hearts” and the adverse effects [3] was “No important adverse effects”.

In the case of `O=C(O)CCCC[C@@H]1CCSS1` [R-α-lipoic acid], the “age-related decline in mitochondrial membrane potential” value (aged rats) is given as “restore the age-related decline in mitochondrial membrane potential”, the “age-related decrease in oxygen consumption” value (aged rats) is given as “reverse the age-related decrease in oxygen consumption” and the “age-related increase in oxidants” value (aged rats) is given as “significantly lower”. For the same molecule, the “glutathione and ascorbic acid levels” value (aged rats) was “restore glutathione and ascorbic acid levels to youthful levels” and the “ambulatory activity of aged rats” value (aged rats; aged rats) was “triple”.

For `CC(=O)O[C@H](CC(=O)[O-])C[N+](C)(C)C` [acetyl-L-carnitine], the “age-associated decrease in mtDNA transcription” value [1] is listed as “reverse”, the “age-related decrease in cardiolipin” value [1] is listed as “reverse the age-related decrease in cardiolipin” and the “age-related decrease of carnitine-acetyl-carnitine exchange activity” value [1] is listed as “slow or reverse this age-related dysfunction”. The decreased membrane potential [1] was “reverse”.

For `C[N+](C)(C)CC(O)CC(=O)[O-]` (stereo not shown) [carnitine], the cell antioxidants (oxidant production) is listed as “decreased cell antioxidants markedly” and the “increase in oxidant production” value (oxidant production) is listed as 30%.

For `CN(CC(=O)O)C(=N)N` [creatine], the “skeletal muscle strength and endurance” value (skeletal muscle) is listed as “Increased skeletal muscle strength and endurance”, the safety ([4]; 1.5 g-25 g/day for period of at least a year) is listed as “safe” and the adverse effects ([4]; athletes, doses up to 75 grams a day for years) is listed as “without known adverse effects, aside from weight gain”.

For `COc1c(O)c(C)c(C/C=C(\C)CC/C=C(\C)CC/C=C(\C)CC/C=C(\C)CC/C=C(\C)CC/C=C(\C)CC/C=C(\C)CC/C=C(\C)CC/C=C(\C)CCC=C(C)C)c(O)c1OC` [ubiquinol-10], the “oxidative damage to DNA” value (human lymphocytes) is given as “appears to protect human lymphocytes from oxidative damage to DNA”.
